{
  "source": "patent US5814627A",
  "about": "“3, 5-disubstituted and 3, 4, 5-trisubstituted 2-isoxazolines and isoxazoles, process for their preparation and their use as pharmaceuticals” (Hoechst Aktienegesellschaft, priority 1994, dated 1998)",
  "key": {"[1]": {"tested_on": "IL-1β release from mononuclear cells", "experiment": "Test 4: cytokine release from LPS-stimulated mononuclear cells, IL-1β", "type": "cell-based", "conditions": "Homo sapiens, 10 μM, read-out: Test 4 residual activity (IL-1β release), percent of control", "procedure": "(§1) Test 4. Stimulation of the cytokine release\n(§2) Isolation of mononuclear cells from human blood\n(§3) 10 ml of human blood, stabilized with 1 ml of 3.8% sodium citrate solution, were diluted with 10 ml of PM16 (Serva, Heidelberg) and underlaid with 15 ml of Lymphoprep (Dr. Molter GmbH, Heidelberg). The samples were centrifuged, at room temperature for 40 minutes, at 400×g (1600 rpm, Minifuge 2, Heraeus, Osterode). The mononuclear cells are visible as a white ring at the Lymphoprep/plasma interface. This ring was carefully removed with a syringe, diluted with an equal volume of PM16, and centrifuged for 10 minutes at 400×g. The sediment was washed with approximately 10 ml of RPMI1640 (+300 mg/l L-glutamine, Gibco, Eggenstein) (Wallis, 1986). After the cells had been resuspended in approximately 1 ml of RPMI1640 (+300 mg/l L-glutamine+25 mM HEPES+100 μg/ml streptomycin+100 μg/ml penicillin), the cell density was determined using a Coulter Counter JT (Coulter Diagnostics) and adjusted to 5*10^6 /ml. Typically, the cells are composed of 90% lymphocytes and 10% monocytes.\n(§4) 230 μl of mononuclear cells were incubated, at 37° C.; 5% CO2 for 20-22 hours (5 hours in the case of IL-6), with 10 μl of test substance (10 μM in DMSO/water, 1/10) and 10 μl of lipopolysaccharide (LPS; 500 μg dissolved in 1 ml of DMSO and diluted 1/10 with water prior to beginning the test; from Salmonella abortus equi, Sigma, Deisenhofen). The samples were cooled down to 0° C. in an ice bath and centrifuged in a Sigma centrifuge (2 minutes; 2000 rpm). Aliquots of the supernatant are measured with an ELISA (Biermann, Bad Nauheim). The abbreviation IL stands for interleukin and TNF for tumor necrosis factor alpha.\n(§5) The values in the table show the concentration of the test substance which was employed in μM and, besides this, the residual activity measured in percent based on the control, which was set to be 100%. The interleukin is additionally indicated in test 4."}, "adjuvant/arthritis model": {"tested_on": "adjuvant/arthritis model", "experiment": "Test 6: antiarthritic effect in the adjuvant/arthritis model", "type": "in vivo, rat (Wistar-Lewis)", "conditions": "Rattus norvegicus, po, 408 h, 50 mg/kg orally, daily for 17 days; rat; read-out: Test 6 Paw volume (% inhibition)", "quoted_text": "Male rats of a Wistar-Lewis strain (Mollegaard/Denmark) were used as experimental animals. The body weight is between 160 and 200 g. Subplantar injection of 0.1 ml of Freund's adjuvant (=6 mg of Mycobacterium butyricum suspension, Difco Lab./Detroit, Mich. USA, per ml of heavy white paraffin oil, Merck, Darmstadt) into the root of the tail resulted, on the 10th to 14th day of the experiment, in immunopathological processes and chronic inflammations, particularly in the form of arthritic and periarthritic symptoms, at other sites in the body (secondary lesions). The animals were fed ad libitum with the standard feed Altromin-R, from Altrogge, Lage, and provided with tap water. The animals were given 60 mg of codein per kg as an analgesic from the 14th day to the end of the experiment. The test substances were administered orally as a CMC suspension, in an injection volume of 1 ml/100 g of body weight, on each day (in all for 17 days), beginning on the day of the adjuvant administration. The volumes of each of the hind paws, and the body weight, were measured on the first and on the 18th day of the experiment. Diminution in the increase of paw volume, as compared with the untreated control group, served as the criterion of activity, with the two hind paws being averaged."}, "[2]": {"tested_on": "IL-6 release from mononuclear cells", "experiment": "Test 4: cytokine release from LPS-stimulated mononuclear cells, IL-6", "type": "cell-based", "conditions": "Homo sapiens, 5 hours incubation, read-out: Test 4 residual activity (IL-6 release), percent of control", "procedure": "as §1, §2\nas §3, with “The sediment was washed with approximately 10 ml of RPMI1640 (+300 mg/l L-glutamine, Gibco, Eggenstein) (Wallis, 1986).” left out, “Typically, the cells are composed of 90% lymphocytes and 10% monocytes.” left out\nas §4, with “The samples were cooled down to 0° C. in an ice bath and centrifuged in a Sigma centrifuge (2 minutes; 2000 rpm).” left out, “The abbreviation IL stands for interleukin and TNF for tumor necrosis factor alpha.” left out"}, "[3]": {"tested_on": "IL-1 release from mononuclear cells", "experiment": "Test 4: cytokine release from LPS-stimulated mononuclear cells, IL-1", "type": "cell-based", "conditions": "Homo sapiens; IL-1; 10 μM; read-out: Test 4 residual activity (IL-1 release), percent of control", "procedure": "as §1, §2, §3, §4, §5"}},
  "data": [
    {"smiles": "CC(C)(C)c1cc(C2CC(CCC(=O)O)=NO2)cc(C(C)(C)C)c1O", "note": "(centres unmarked) [Example 63, 5-(4-Hydroxy-3,5-di-tert-butylphenyl)-2-isoxazolin-3-ylpropionic acid]", "values": [
      {"measurement": "activity at 10 µM", "setting": "[1]", "result": 77, "unit": "%"}
    ]},
    {"smiles": "CC(O)c1cc(-c2cc(C(C)(C)C)c(O)c(C(C)(C)C)c2)no1", "note": "(centres unmarked) [Example 28]", "values": [
      {"measurement": "inhibition in vivo at 50 mg/kg", "setting": "adjuvant/arthritis model", "result": 74, "unit": "%"}
    ]},
    {"smiles": "CC(C)(C)c1cc(-c2cc(CNS(=O)(=O)C(F)(F)F)on2)cc(C(C)(C)C)c1O", "note": "[Example 49, N-(3-(4-Hydroxy-3,5-di-tert-butylphenyl)isoxazol-5-ylmethyl)trifluoromethanesulfonamide]", "values": [
      {"measurement": "activity at 1 µM", "setting": "[2]; 1 μM", "result": 91, "unit": "%"}
    ]},
    {"smiles": "CC(C)(C)c1cc(C2=NOC(c3ccccn3)C2)cc(C(C)(C)C)c1O", "note": "(centres unmarked) [Example 9]", "values": [
      {"measurement": "activity at 10 µM", "setting": "[2]; 10 μM", "result": 93, "unit": "%"},
      {"measurement": "activity at 10 µM", "setting": "[3]", "result": 73, "unit": "%"}
    ]}
  ]
}
